Assays:
Assay in all cases: relative viability (nuclei count vs DMSO), 5 days (fraction); higher = more cells survive
[1] = system: NCI-H460
Method in brief: (§1)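 Relative viability divides the nuclei count in treated wells by that in vehicle wells. Lung cancer cell lines were seeded in 1536-well plates, dosed by pin tool the next day, and fixed and stained after 5 days in one step with final 0.05% Triton X-100, 1% formaldehyde and 1 ug/ml Hoechst. Dosing was a single drug or a fixed anchor-drug dose plus five library-drug doses (not always all listed) in √10 steps, and values are medians of duplicate plates imaged at 4×.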

[2] = system: NCI-H2023
Method in brief: as §1

[3] = system: COR-L23
Method in brief: as §1

[4] = system: RERF-LC-KJ
Method in brief: as §1

[5] = system: NCI-H1650
Method in brief: as §1

[6] = system: NCI-H1993
Method in brief: as §1

[7] = system: NCI-H2009
Method in brief: as §1

[8] = system: 201T
Method in brief: as §1

[9] = system: SW 1573
Method in brief: as §1

[10] = system: A-427
Method in brief: as §1

[11] = system: LCLC-103H
Method in brief: as §1

[12] = system: ChaGo-K-1
Method in brief: as §1

[13] = system: NCI-H650
Method in brief: as §1

[14] = system: HCC-44
Method in brief: as §1

[15] = system: LCLC-97TM1
Method in brief: as §1

[16] = system: HCC-366
Method in brief: as §1

[17] = system: LOU-NH91
Method in brief: as §1

[18] = system: HCC-78
Method in brief: as §1

[19] = system: NCI-H1734
Method in brief: as §1

[20] = system: NCI-H2126
Method in brief: as §1

[21] = system: NCI-H441
Method in brief: as §1

[22] = system: HCC-15
Method in brief: as §1

[23] = system: HARA
Method in brief: as §1

O=C(O)CCCCC(CCSCc1ccccc1)SCc1ccccc1 (centres undefined) [CPI-613] + CS(=O)(=O)N1CCN(Cc2cc3nc(-c4cccc5[nH]ncc45)nc(N4CCOCC4)c3s2)CC1 [Pictilisib] (partner 1 µM)
relative viability ([1]; first compound 5 µM): 0.353 | relative viability ([1]; first compound 15.81 µM): 0.315 | relative viability ([1]; first compound 50 µM): 0.347 | relative viability ([1]; first compound 158.11 µM): 0.419 | relative viability ([1]; first compound 500 µM): 0.342 | relative viability ([2]; first compound 5 µM): 0.233 | relative viability ([2]; first compound 15.81 µM): 0.218 | relative viability ([2]; first compound 50 µM): 0.231 | relative viability ([2]; first compound 158.11 µM): 0.0548 | relative viability ([2]; first compound 500 µM): 0.0183 | relative viability ([3]; first compound 5 µM): 0.639 | relative viability ([3]; first compound 15.81 µM): 0.689 | relative viability ([3]; first compound 50 µM): 0.621 | relative viability ([3]; first compound 158.11 µM): 0.393 | relative viability ([3]; first compound 500 µM): 0.007 | relative viability ([4]; first compound 5 µM): 0.455 | relative viability ([4]; first compound 15.81 µM): 0.496 | relative viability ([4]; first compound 50 µM): 0.605 | relative viability ([4]; first compound 158.11 µM): 0.558 | relative viability ([4]; first compound 500 µM): 0.438 | relative viability ([5]; first compound 5 µM): 0.597 | relative viability ([5]; first compound 15.81 µM): 0.477 | relative viability ([5]; first compound 50 µM): 0.638 | relative viability ([5]; first compound 158.11 µM): 0.109 | relative viability ([5]; first compound 500 µM): 0.0271 | relative viability ([6]; first compound 5 µM): 0.762 | relative viability ([6]; first compound 15.81 µM): 0.698 | relative viability ([6]; first compound 50 µM): 0.715 | relative viability ([6]; first compound 158.11 µM): 0.648 | relative viability ([6]; first compound 500 µM): 0.496 | relative viability ([7]; first compound 5 µM): 0.855 | relative viability ([7]; first compound 15.81 µM): 0.675 | relative viability ([7]; first compound 50 µM): 0.722 | relative viability ([7]; first compound 158.11 µM): 0.0928 | relative viability ([7]; first compound 500 µM): 0.0311 | relative viability ([8]; first compound 5 µM): 0.722 | relative viability ([8]; first compound 15.81 µM): 0.654 | relative viability ([8]; first compound 50 µM): 0.667 | relative viability ([8]; first compound 158.11 µM): 0.665 | relative viability ([8]; first compound 500 µM): 0.647 | relative viability ([9]; first compound 5 µM): 0.532 | relative viability ([9]; first compound 15.81 µM): 0.452 | relative viability ([9]; first compound 50 µM): 0.554 | relative viability ([9]; first compound 158.11 µM): 0.46 | relative viability ([9]; first compound 500 µM): 0.481 | relative viability ([10]; first compound 5 µM): 0.742 | relative viability ([10]; first compound 15.81 µM): 0.696 | relative viability ([10]; first compound 50 µM): 0.66 | relative viability ([10]; first compound 158.11 µM): 0.613 | relative viability ([10]; first compound 500 µM): 0.737 | relative viability ([11]; first compound 5 µM): 0.55 | relative viability ([11]; first compound 15.81 µM): 0.578 | relative viability ([11]; first compound 50 µM): 0.581 | relative viability ([11]; first compound 158.11 µM): 0.539 | relative viability ([11]; first compound 500 µM): 0.653 | relative viability ([12]; first compound 5 µM): 0.519 | relative viability ([12]; first compound 15.81 µM): 0.663 | relative viability ([12]; first compound 50 µM): 0.707 | relative viability ([12]; first compound 158.11 µM): 0.612 | relative viability ([12]; first compound 500 µM): 0.33 | relative viability ([13]; first compound 5 µM): 0.805 | relative viability ([13]; first compound 15.81 µM): 0.861 | relative viability ([13]; first compound 50 µM): 0.855 | relative viability ([13]; first compound 158.11 µM): 0.742 | relative viability ([13]; first compound 500 µM): 0.736 | relative viability ([14]; first compound 5 µM): 0.546 | relative viability ([14]; first compound 15.81 µM): 0.611 | relative viability ([14]; first compound 50 µM): 0.589 | relative viability ([14]; first compound 158.11 µM): 0.469 | relative viability ([14]; first compound 500 µM): 0.0534 | relative viability ([15]; first compound 5 µM): 0.191 | relative viability ([15]; first compound 15.81 µM): 0.164 | relative viability ([15]; first compound 50 µM): 0.174 | relative viability ([15]; first compound 158.11 µM): 0.192 | relative viability ([15]; first compound 500 µM): 0.0531 | relative viability ([16]; first compound 5 µM): 0.149 | relative viability ([16]; first compound 15.81 µM): 0.144 | relative viability ([16]; first compound 50 µM): 0.154 | relative viability ([16]; first compound 158.11 µM): 0.12 | relative viability ([16]; first compound 500 µM): 0.157 | relative viability ([17]; first compound 5 µM): 0.499 | relative viability ([17]; first compound 15.81 µM): 0.519 | relative viability ([17]; first compound 50 µM): 0.541 | relative viability ([17]; first compound 158.11 µM): 0.532 | relative viability ([17]; first compound 500 µM): 0.511 | relative viability ([18]; first compound 5 µM): 0.203 | relative viability ([18]; first compound 15.81 µM): 0.167 | relative viability ([18]; first compound 158.11 µM): 0.156 | relative viability ([18]; first compound 500 µM): 0.206 | relative viability ([19]; first compound 5 µM): 0.466 | relative viability ([19]; first compound 15.81 µM): 0.383 | relative viability ([19]; first compound 50 µM): 0.434 | relative viability ([19]; first compound 158.11 µM): 0.274 | relative viability ([19]; first compound 500 µM): 0.113 | relative viability ([20]; first compound 5 µM): 0.539 | relative viability ([20]; first compound 15.81 µM): 0.457 | relative viability ([20]; first compound 50 µM): 0.499 | relative viability ([20]; first compound 158.11 µM): 0.395 | relative viability ([20]; first compound 500 µM): 0.393 | relative viability ([21]; first compound 5 µM): 0.498 | relative viability ([21]; first compound 15.81 µM): 0.468 | relative viability ([21]; first compound 50 µM): 0.417 | relative viability ([21]; first compound 158.11 µM): 0.147 | relative viability ([21]; first compound 500 µM): 0.0254 | relative viability ([22]; first compound 5 µM): 0.604 | relative viability ([22]; first compound 15.81 µM): 0.664 | relative viability ([22]; first compound 50 µM): 0.603 | relative viability ([22]; first compound 158.11 µM): 0.629 | relative viability ([22]; first compound 500 µM): 0.238 | relative viability ([23]; first compound 5 µM): 0.474 | relative viability ([23]; first compound 15.81 µM): 0.409 | relative viability ([23]; first compound 50 µM): 0.281 | relative viability ([23]; first compound 158.11 µM): 0.242 | relative viability ([23]; first compound 500 µM): 0.084
